This experiment relates to CD1 mice. Description: Oral Glucose Tolerance Test (OGTT). It counts as in vivo. Particulars: for integrated increase in blood glucose (area under the curve of delta blood glucose) over 120 min following glucose administration: fasted female CD1 mice, mean±SEM. On the procedure:
Oral Glucose Tolerance Test (OGTT)
Six-week old female CD1 mice (Charles River) were fasted for at least 16 hours. Mice were given 1.5 mg of glucose per gram of body weight orally in water through a gastric savage tube at t=o min and blood was collected from a tail vein at t=0, 10, 20, 30, 60, 90 and 120 min for measurement of blood glucose using a glucose meter (Lifescan). Peptides or vehicle were injected subcutaneously 5 min prior to the glucose administration. Data were expressed as the area under the curve, calculated from the change (delta) in blood glucose for each time, using the trapezoidal rule. Therefore, the data represent the integrated increase in blood glucose over a 120 min period following glucose administration. Data presented are the mean±SEM of 4 to 11 animals per group.
All peptides, including wild-type GLP-1 (7-37), were tested in the OGTT test at 3 different concentrations: 1, 5 and 10 ug per mouse. In a first set of experiments (study A), peptide 3 was tested in comparison with vehicle and hGLP-1(7-37). In a second set of experiments (study B), peptides 1 and 2 were tested in comparison with vehicle and hGLP-1 (7-37).

Setting [1] is: studies A and B, 1, 5 and 10 ug per mouse subcutaneously.

The results in this text go back to patent publication US20030204063A1, “Modified biological peptides with increased potency” (priority 2003, published 2003).

Take “((+,−)-cis-2-Ethylcyclopropylacetic acid-His^7)-hGLP-1 (7-37) [peptide 2]”: the “integrated increase in blood glucose (area under the curve of delta blood glucose) over 120 min following glucose administration” value runs as follows: (study B, 5 ug per mouse subcutaneously 5 min prior to oral glucose 1.5 mg/g) −17±67 mM×120 min; (study B, 10 ug per mouse subcutaneously 5 min prior to oral glucose 1.5 mg/g) 61±64 mM×120 min. For the same substance, the “biological potency compared with wild type GLP-1 (7-37) (in words)” value (study B, OGTT, subcutaneous) was “marked increased biological potency”.

For “(Hexanoyl-trans-3-His^7)-hGLP-1 (7-37) [peptide 3]”, for the setting “study A, 10 ug per mouse subcutaneously 5 min prior to oral glucose 1.5 mg/g”, the “integrated increase in blood glucose (area under the curve of delta blood glucose) over 120 min following glucose administration” value is 9±26 mM×120 min.

Consider “hGLP(7-37) (HAEGTFTSDVSSYLEGQAAKEFIAWLVKGRG; Glucagon-like peptide 1; UniProt P01275 98-128, looked up, fragment) [wt GLP-1, wild type human glucagon-like peptide 1 (7-37), comparator in the OGTT, reference compound]”, for which, under setting [1], the “ability to completely suppress the glucose response (in words)” value is “not able to completely suppress the glucose response at any dose” and the “effect on the glucose response (in words)” value is recorded as “dose-related decrease in the glucose response”.
